The experiment addresses T1, KKT23^2–348 (Trypanosoma brucei, UniProt Q38AU6).
T1 construct: gene Tb10.70.0180; full-length recombinant protein (residues 2-348), E. coli, His-tag cut by TEV, monomer, calculated 39 kDa; strain printed for the cell lines only
T1 sequence (Q38AU6 2-348): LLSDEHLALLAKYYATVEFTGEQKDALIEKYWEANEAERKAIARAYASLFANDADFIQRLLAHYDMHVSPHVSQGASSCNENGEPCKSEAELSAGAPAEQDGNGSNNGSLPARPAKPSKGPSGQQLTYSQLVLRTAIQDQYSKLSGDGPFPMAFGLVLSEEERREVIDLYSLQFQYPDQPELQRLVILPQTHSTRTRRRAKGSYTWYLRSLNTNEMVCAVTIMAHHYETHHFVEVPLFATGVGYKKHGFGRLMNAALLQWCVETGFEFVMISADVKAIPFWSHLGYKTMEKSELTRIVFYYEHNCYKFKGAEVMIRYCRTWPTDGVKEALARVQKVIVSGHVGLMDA
Description: histone acetyltransferase assay, anti-acetyl-lysine immunoblot and mass spectrometry. It counts as biochemical. Particulars: co-substrate reconstituted T. brucei nucleosomes (H2A C-terminal tail); up to 200 uM acetyl-CoA; pH 8.0, 30 C, 1 h.

Regarding `CC(=O)SCCNC(=O)CCNC(=O)[C@H](O)C(C)(C)COP(=O)(O)OP(=O)(O)OC[C@H]1O[C@@H](n2cnc3c(N)ncnc32)[C@H](O)[C@@H]1OP(=O)(O)O` [acetyl coenzyme A], the “histone acetyltransferase assay, anti-acetyl-lysine immunoblot and mass spectrom” value is “recombinant KKT23 was incubated with acetyl-CoA and nucleosomes reconstituted using either T. brucei or H. sapiens”.

The values are drawn from paper doi:10.1101/2024.08.16.608276v1, “The kinetoplastid kinetochore protein KKT23 acetyltransferase is a structural homolog of GCN5 that acetylates the histone H2A C-terminal tail” (biorxiv, 2024).
